Laboratory results published in ChEMBL document CHEMBL3044623, “Feeding cessation effects of chlorantraniliprole, a new anthranilic diamide insecticide, in comparison with several insecticides in distinct chemical classes and mode-of-action groups” (2009).

What was measured:
Format in all cases: functional
[1] = test system: Trichoplusia ni; assay: Antifeedant activity against third-instar larval stage of Trichoplusia ni (cabbage looper) infested compound-treated leaf assessed as reduction in feeding damage at 244 mg a.i/L after 48 hr by leaf disk assay relative to untreated control; design: scale not given: the % may be the effect or the level left
[2] = test system: Plutella xylostella; assay: Antifeedant activity against third-instar larval stage of Plutella xylostella (diamondback moth) infested compound-treated leaf assessed as reduction in feeding damage at 244 mg a.i/L after 48 hr by leaf disk assay relative to untreated control; design: scale not given: the % may be the effect or the level left
[3] = test system: Plutella xylostella; assay: Antifeedant activity against third-instar larval stage of Plutella xylostella (diamondback moth) infested compound-treated leaf assessed as time required to stop feeding at 244 mg a.i/L after 48 hr by leaf disk assay (reference value: > 2880 min)
[4] = test system: Trichoplusia ni; assay: Antifeedant activity against third-instar larval stage of Trichoplusia ni (cabbage looper) infested compound-treated leaf assessed as time required to stop feeding at 244 mg a.i/L after 48 hr by leaf disk assay (reference value: > 2880 min)
[5] = test system: Spodoptera exigua; assay: Antifeedant activity against third-instar larval stage of Spodoptera exigua infested compound-treated leaf assessed as time required to stop feeding at 244 mg a.i/L after 48 hr by leaf disk assay (reference value: > 2880 min)
[6] = test system: Spodoptera exigua; assay: Antifeedant activity against third-instar larval stage of Spodoptera exigua infested compound-treated leaf assessed as reduction in feeding damage at 244 mg a.i/L after 48 hr by leaf disk assay relative to untreated control; design: scale not given: the % may be the effect or the level left
[7] = test system: Helicoverpa zea; assay: Antifeedant activity against third-instar larval stage of Helicoverpa zea (corn earworm) infested compound-treated leaf assessed as reduction in feeding damage at 244 mg a.i/L after 48 hr by leaf disk assay relative to untreated control; design: scale not given: the % may be the effect or the level left
[8] = test system: Helicoverpa zea; assay: Antifeedant activity against third-instar larval stage of Helicoverpa zea (corn earworm) infested compound-treated leaf assessed as time required to stop feeding at 244 mg a.i/L after 48 hr by leaf disk assay (reference value: > 2880 min)
[9] = test system: Trichoplusia ni; assay: Antifeedant activity against third-instar larval stage of Trichoplusia ni (cabbage looper) infested compound-treated leaf assessed as reduction in feeding damage at 187 mg a.i/L after 48 hr by leaf disk assay relative to untreated control; design: scale not given: the % may be the effect or the level left
[10] = test system: Trichoplusia ni; assay: Antifeedant activity against third-instar larval stage of Trichoplusia ni (cabbage looper) infested compound-treated leaf assessed as time required to stop feeding at 187 mg a.i/L after 48 hr by leaf disk assay (reference value: > 2880 min)
[11] = test system: Spodoptera exigua; assay: Antifeedant activity against third-instar larval stage of Spodoptera exigua infested compound-treated leaf assessed as time required to stop feeding at 187 mg a.i/L after 48 hr by leaf disk assay (reference value: > 2880 min)
[12] = test system: Spodoptera exigua; assay: Antifeedant activity against third-instar larval stage of Spodoptera exigua infested compound-treated leaf assessed as reduction in feeding damage at 187 mg a.i/L after 48 hr by leaf disk assay relative to untreated control; design: scale not given: the % may be the effect or the level left
[13] = test system: Helicoverpa zea; assay: Antifeedant activity against third-instar larval stage of Helicoverpa zea (corn earworm) infested compound-treated leaf assessed as time required to stop feeding at 187 mg a.i/L after 48 hr by leaf disk assay (reference value: > 2880 min)
[14] = test system: Helicoverpa zea; assay: Antifeedant activity against third-instar larval stage of Helicoverpa zea (corn earworm) infested compound-treated leaf assessed as reduction in feeding damage at 187 mg a.i/L after 48 hr by leaf disk assay relative to untreated control; design: scale not given: the % may be the effect or the level left
[15] = test system: Trichoplusia ni; assay: Antifeedant activity against third-instar larval stage of Trichoplusia ni (cabbage looper) infested compound-treated leaf assessed as reduction in feeding damage at 40 mg a.i/L after 48 hr by leaf disk assay relative to untreated control; design: scale not given: the % may be the effect or the level left
[16] = test system: Plutella xylostella; assay: Antifeedant activity against third-instar larval stage of Plutella xylostella (diamondback moth) infested compound-treated leaf assessed as reduction in feeding damage at 40 mg a.i/L after 48 hr by leaf disk assay relative to untreated control; design: scale not given: the % may be the effect or the level left
[17] = test system: Plutella xylostella; assay: Antifeedant activity against third-instar larval stage of Plutella xylostella (diamondback moth) infested compound-treated leaf assessed as time required to stop feeding at 40 mg a.i/L after 48 hr by leaf disk assay (reference value: > 2880 min)
[18] = test system: Helicoverpa zea; assay: Antifeedant activity against third-instar larval stage of Helicoverpa zea (corn earworm) infested compound-treated leaf assessed as reduction in feeding damage at 40 mg a.i/L after 48 hr by leaf disk assay relative to untreated control; design: scale not given: the % may be the effect or the level left
[19] = test system: Trichoplusia ni; assay: Antifeedant activity against third-instar larval stage of Trichoplusia ni (cabbage looper) infested compound-treated leaf assessed as time required to stop feeding at 40 mg a.i/L after 48 hr by leaf disk assay (reference value: > 2880 min)
[20] = test system: Spodoptera exigua; assay: Antifeedant activity against third-instar larval stage of Spodoptera exigua infested compound-treated leaf assessed as time required to stop feeding at 40 mg a.i/L after 48 hr by leaf disk assay (reference value: > 2880 min)
[21] = test system: Spodoptera exigua; assay: Antifeedant activity against third-instar larval stage of Spodoptera exigua infested compound-treated leaf assessed as reduction in feeding damage at 40 mg a.i/L after 48 hr by leaf disk assay relative to untreated control; design: scale not given: the % may be the effect or the level left
[22] = test system: Helicoverpa zea; assay: Antifeedant activity against third-instar larval stage of Helicoverpa zea (corn earworm) infested compound-treated leaf assessed as time required to stop feeding at 40 mg a.i/L after 48 hr by leaf disk assay (reference value: > 2880 min)

## COC(=O)N(C(=O)N1CO[C@@]2(C(=O)OC)Cc3cc(Cl)ccc3C2=N1)c1ccc(OC(F)(F)F)cc1 [INDOXACARB]
[1]
  Activity: 94.8%
[2]
  Activity: 96.6%
[3]
  Time: 151.6 min
[4]
  Time: 83.6 min
[5]
  Time: 54.2 min
[6]
  Activity: 95.4%
[7]
  Activity: 93.4%
[8]
  Time: 77.2 min

## CC(C)[C@H](C(=O)O[C@H](C#N)c1cccc(Oc2ccccc2)c1)c1ccc(Cl)cc1
[9]
  Activity: 99.9%
[10]
  Time: 5 min
[11]
  Time: 6.4 min
[12]
  Activity: 99.9%
[13]
  Time: 3.4 min
[14]
  Activity: 99.9%

## CC[C@H](C)C1O[C@]2(C=C[C@@H]1C)C[C@@H]1C[C@@H](C/C=C(\C)[C@@H](O[C@H]3C[C@H](OC)[C@@H](O[C@H]4C[C@H](OC)[C@H](NC)[C@H](C)O4)[C@H](C)O3)[C@@H](C)/C=C/C=C3\CO[C@@H]4[C@H](O)C(C)=C[C@@H](C(=O)O1)[C@]34O)O2.O=C(O)c1ccccc1 (some centres not stated) [EMAMECTIN BENZOATE]
[15]
  Activity: 95.7%
[16]
  Activity: 97.9%
[17]
  Time: 55.9 min
[18]
  Activity: 93.9%
[19]
  Time: 91.9 min
[20]
  Time: 139 min
[21]
  Activity: 92.4%
[22]
  Time: 151.8 min
